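Following 48 hours of exposure in 96-well plates, responses at five concentrations were used to interpolate endpoints linearly. The concentration for 50% growth inhibition is given as GI50.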 The source made the active and inactive calls. No stated cut-off is given here; in the data, active = GI50 up to about 1.1 µM and inactive = higher.
Columns and labels:
Experiment in all cases: NCI-60 cell line screen, 48 h
OVCAR-5 = tested on: OVCAR-5
OVCAR-3 = tested on: OVCAR-3
UACC-62 = tested on: UACC-62
SW-620 = tested on: SW-620
ACHN = tested on: ACHN
COLO 205 = tested on: COLO 205
SK-MEL-2 = tested on: SK-MEL-2
SK-OV-3 = tested on: SK-OV-3
SNB-75 = tested on: SNB-75
Hs-578T = tested on: Hs-578T
A549 = tested on: A549
SF-268 = tested on: SF-268
HT-29 = tested on: HT-29
KM12 = tested on: KM12
K562 = tested on: K562
SK-MEL-5 = tested on: SK-MEL-5
A498 = tested on: A498
OVCAR-4 = tested on: OVCAR-4
HCT-15 = tested on: HCT-15
Malme-3M = tested on: Malme-3M
CAKI-1 = tested on: CAKI-1
786-0 = tested on: 786-0
HL-60 = tested on: HL-60
BT-549 = tested on: BT-549
MDA-MB-231 = tested on: MDA-MB-231
T47D = tested on: T47D
NCI-H23 = tested on: NCI-H23
CCRF-CEM = tested on: CCRF-CEM
RPMI-8226 = tested on: RPMI-8226
HOP-92 = tested on: HOP-92
HCT-116 = tested on: HCT-116
MDA-N = tested on: MDA-N
OVCAR-8 = tested on: OVCAR-8
SK-MEL-28 = tested on: SK-MEL-28
MDA-MB-435 = tested on: MDA-MB-435
SF-295 = tested on: SF-295
SN12C = tested on: SN12C
U-251 = tested on: U-251
LOX IMVI = tested on: LOX IMVI
IGROV-1 = tested on: IGROV-1
NCI-H522 = tested on: NCI-H522
EKVX = tested on: EKVX
HCC 2998 = tested on: HCC 2998
SNB-19 = tested on: SNB-19
UACC-257 = tested on: UACC-257
NCI-H226 = tested on: NCI-H226
SF-539 = tested on: SF-539
UO-31 = tested on: UO-31
SR = tested on: SR
M14 = tested on: M14
DU-145 = tested on: DU-145
MOLT-4 = tested on: MOLT-4
NCI-H460 = tested on: NCI-H460
RXF 393 = tested on: RXF 393
NCI/ADR-RES = tested on: NCI/ADR-RES
TK-10 = tested on: TK-10
HOP-62 = tested on: HOP-62
PC-3 = tested on: PC-3
MCF7 = tested on: MCF7
DLD-1 = tested on: DLD-1
M19-MEL = tested on: M19-MEL
DMS-273 = tested on: DMS-273
KM-20L2 = tested on: KM-20L2
XF498 = tested on: XF498
DMS-114 = tested on: DMS-114

O=P1(c2ccccc2)C(c2ccccc2)=CC=C1c1ccccc1 was tested, and the GI50 (OVCAR-5) was 20.9 µM (inactive), the GI50 (OVCAR-3) was 12.2 µM (inactive) and the GI50 (UACC-62) was 18.8 µM (inactive). The GI50 (SW-620) was 26.1 µM (inactive), the GI50 (ACHN) was 28 µM (inactive) and the GI50 (COLO 205) was 15 µM (inactive). For the same compound, the GI50 (SK-MEL-2) was 11.3 µM (inactive), the GI50 (SK-OV-3) was 59.4 µM (inactive) and the GI50 (SNB-75) was 20.7 µM (inactive). The GI50 (Hs-578T) was 37.8 µM (inactive), the GI50 (A549) was 22.6 µM (inactive) and the GI50 (SF-268) was 24.5 µM (inactive). The GI50 (HT-29) was 10.3 µM (inactive), the GI50 (KM12) was 16.7 µM (inactive) and the GI50 (K562) was 3.95 µM (inactive). For the same compound, the GI50 (SK-MEL-5) was 6.24 µM (inactive), the GI50 (A498) was 16.8 µM (inactive) and the GI50 (OVCAR-4) was 10.6 µM (inactive). For the same compound, the GI50 (HCT-15) was 16 µM, the GI50 (Malme-3M) was 27.3 µM (inactive) and the GI50 (CAKI-1) was 50.7 µM (inactive). The GI50 (786-0) was 26 µM (inactive), the GI50 (HL-60) was 2.28 µM (inactive) and the GI50 (BT-549) was 18.8 µM (inactive). For the same compound, the GI50 (MDA-MB-231) was 36.7 µM (inactive), the GI50 (T47D) was 8.95 µM (inactive) and the GI50 (NCI-H23) was 21.5 µM (inactive). For the same compound, the GI50 (CCRF-CEM) was 12.3 µM (inactive), the GI50 (RPMI-8226) was 3.31 µM (inactive) and the GI50 (HOP-92) was 12.1 µM (inactive). The GI50 (HCT-116) was 9.25 µM (inactive), the GI50 (MDA-N) was 10.8 µM (inactive) and the GI50 (OVCAR-8) was 14.6 µM (inactive). The GI50 (SK-MEL-28) was 58.1 µM (inactive), the GI50 (MDA-MB-435) was 12.4 µM (inactive) and the GI50 (SF-295) was 28.4 µM (inactive). The GI50 (SN12C) was 39.2 µM (inactive), the GI50 (U-251) was 13.3 µM (inactive) and the GI50 (LOX IMVI) was 10.4 µM (inactive). The GI50 (IGROV-1) was 39.8 µM (inactive), the GI50 (NCI-H522) was 20 µM (inactive) and the GI50 (EKVX) was 24.2 µM (inactive). For the same compound, the GI50 (HCC 2998) was 25.2 µM (inactive), the GI50 (SNB-19) was > 100 µM (inactive) and the GI50 (UACC-257) was 22.5 µM (inactive). The GI50 (NCI-H226) was 26.4 µM (inactive), the GI50 (SF-539) was 59 µM (inactive) and the GI50 (UO-31) was 13.7 µM (inactive). For the same compound, the GI50 (SR) was 11.9 µM (inactive), the GI50 (M14) was 18.4 µM (inactive) and the GI50 (DU-145) was 41.8 µM (inactive). For the same compound, the GI50 (MOLT-4) was 6.65 µM (inactive), the GI50 (NCI-H460) was 11.6 µM (inactive) and the GI50 (RXF 393) was 29.9 µM (inactive). For the same compound, the GI50 (NCI/ADR-RES) was 30.7 µM (inactive), the GI50 (TK-10) was 13.2 µM (inactive) and the GI50 (HOP-62) was 44.4 µM (inactive). For the same compound, the GI50 (PC-3) was 15.3 µM (inactive) and the GI50 (MCF7) was 10.4 µM (inactive).

For COc1ccc2c(c1)c1cc(OC)ccc1n2CCCCOc1ccc(-c2c3ccccc3c(-c3ccc(OCCCCn4c5ccc(OC)cc5c5cc(OC)ccc54)cc3)c3ccccc23)cc1, the GI50 (OVCAR-5) was > 100 µM (inactive), the GI50 (OVCAR-3) was > 100 µM (inactive) and the GI50 (UACC-62) was > 100 µM (inactive). The GI50 (SW-620) was > 100 µM (inactive), the GI50 (ACHN) was > 100 µM (inactive) and the GI50 (COLO 205) was > 100 µM (inactive). For the same compound, the GI50 (SK-MEL-2) was > 100 µM (inactive), the GI50 (SK-OV-3) was > 100 µM (inactive) and the GI50 (SNB-75) was > 100 µM (inactive). The GI50 (A549) was > 100 µM (inactive), the GI50 (SF-268) was > 100 µM (inactive) and the GI50 (KM12) was > 100 µM (inactive). For the same compound, the GI50 (K562) was > 100 µM (inactive), the GI50 (OVCAR-4) was > 100 µM (inactive) and the GI50 (HCT-15) was over 100 µM. For the same compound, the GI50 (Malme-3M) was > 100 µM (inactive), the GI50 (DLD-1) was > 100 µM (inactive) and the GI50 (CAKI-1) was > 100 µM (inactive). The GI50 (CCRF-CEM) was > 100 µM (inactive), the GI50 (HOP-92) was > 100 µM (inactive) and the GI50 (HCT-116) was > 100 µM (inactive). For the same compound, the GI50 (OVCAR-8) was > 100 µM (inactive), the GI50 (SK-MEL-28) was > 100 µM (inactive) and the GI50 (SN12C) was > 100 µM (inactive). The GI50 (M19-MEL) was > 100 µM (inactive), the GI50 (DMS-273) was > 100 µM (inactive) and the GI50 (KM-20L2) was > 100 µM (inactive). For the same compound, the GI50 (LOX IMVI) was > 100 µM (inactive), the GI50 (IGROV-1) was > 100 µM (inactive) and the GI50 (NCI-H522) was > 100 µM (inactive). For the same compound, the GI50 (EKVX) was > 100 µM (inactive), the GI50 (HCC 2998) was > 100 µM (inactive) and the GI50 (SNB-19) was > 100 µM (inactive). The GI50 (NCI-H226) was > 100 µM (inactive), the GI50 (SF-539) was > 100 µM (inactive) and the GI50 (UO-31) was > 100 µM (inactive). For the same compound, the GI50 (M14) was > 100 µM (inactive), the GI50 (XF498) was > 100 µM (inactive) and the GI50 (MOLT-4) was > 100 µM (inactive). The GI50 (DMS-114) was > 100 µM (inactive), the GI50 (TK-10) was > 100 µM (inactive) and the GI50 (HOP-62) was > 100 µM (inactive).

CC1=CC(=O)CC(C)(C)C1(O)/C=C/C(C)=C/C(=O)O (stereo not given) was tested, and the GI50 (OVCAR-5) was > 100 µM (inactive), the GI50 (OVCAR-3) was > 100 µM (inactive) and the GI50 (UACC-62) was > 100 µM (inactive). The GI50 (SW-620) was > 100 µM (inactive), the GI50 (ACHN) was > 100 µM (inactive) and the GI50 (COLO 205) was > 100 µM (inactive). The GI50 (SK-MEL-2) was > 100 µM (inactive), the GI50 (SK-OV-3) was > 100 µM (inactive) and the GI50 (SNB-75) was > 100 µM (inactive). For the same compound, the GI50 (Hs-578T) was > 100 µM (inactive), the GI50 (A549) was > 100 µM (inactive) and the GI50 (SF-268) was > 100 µM (inactive). The GI50 (HT-29) was > 100 µM (inactive), the GI50 (KM12) was > 100 µM (inactive) and the GI50 (K562) was > 100 µM (inactive). For the same compound, the GI50 (SK-MEL-5) was > 100 µM (inactive), the GI50 (A498) was > 100 µM (inactive) and the GI50 (OVCAR-4) was > 100 µM (inactive). For the same compound, the GI50 (HCT-15) was over 100 µM, the GI50 (Malme-3M) was > 100 µM (inactive) and the GI50 (CAKI-1) was > 100 µM (inactive). For the same compound, the GI50 (786-0) was > 100 µM (inactive), the GI50 (HL-60) was > 100 µM (inactive) and the GI50 (BT-549) was > 100 µM (inactive). The GI50 (MDA-MB-231) was > 100 µM (inactive), the GI50 (T47D) was > 100 µM (inactive) and the GI50 (NCI-H23) was > 100 µM (inactive). For the same compound, the GI50 (CCRF-CEM) was > 100 µM (inactive), the GI50 (RPMI-8226) was > 100 µM (inactive) and the GI50 (HOP-92) was > 100 µM (inactive). The GI50 (HCT-116) was > 100 µM (inactive), the GI50 (MDA-N) was > 100 µM (inactive) and the GI50 (OVCAR-8) was > 100 µM (inactive). The GI50 (SK-MEL-28) was > 100 µM (inactive), the GI50 (MDA-MB-435) was > 100 µM (inactive) and the GI50 (SF-295) was > 100 µM (inactive). For the same compound, the GI50 (SN12C) was > 100 µM (inactive), the GI50 (U-251) was > 100 µM (inactive) and the GI50 (LOX IMVI) was > 100 µM (inactive). The GI50 (IGROV-1) was > 100 µM (inactive), the GI50 (NCI-H522) was > 100 µM (inactive) and the GI50 (EKVX) was > 100 µM (inactive). The GI50 (HCC 2998) was > 100 µM (inactive), the GI50 (SNB-19) was > 100 µM (inactive) and the GI50 (UACC-257) was > 100 µM (inactive). The GI50 (NCI-H226) was > 100 µM (inactive), the GI50 (SF-539) was > 100 µM (inactive) and the GI50 (UO-31) was > 100 µM (inactive). The GI50 (SR) was > 100 µM (inactive), the GI50 (M14) was > 100 µM (inactive) and the GI50 (DU-145) was > 100 µM (inactive). The GI50 (MOLT-4) was > 100 µM (inactive), the GI50 (NCI-H460) was > 100 µM (inactive) and the GI50 (RXF 393) was > 100 µM (inactive). For the same compound, the GI50 (NCI/ADR-RES) was > 100 µM (inactive), the GI50 (TK-10) was > 100 µM (inactive) and the GI50 (HOP-62) was > 100 µM (inactive). For the same compound, the GI50 (PC-3) was > 100 µM (inactive) and the GI50 (MCF7) was > 100 µM (inactive).

Reference: ChEMBL document CHEMBL1201862, “PubChem BioAssay data set” (2004)
